Test results taken from ChEMBL document CHEMBL3832761, “MMV Pathogen Box Bioactivity Data” (2017).

Key:
[1] = AntiChikungunya activity HCI CHIKV/Huh7 IC50 (uM); format: functional, Chikungunya virus
HepG2 [2] = assay: HepG2 CC50 (uM) Cytotoxicity; format: functional; details: Homo sapiens
Dengue virus [3] = assay: AntiDengue activity HCI DV2/Huh7 IC50 (uM); format: functional, organism-based; details: Huh-7
[4] = HUH7 CC50 (uM) Cytotoxicity; format: functional; details: Huh-7
Dengue virus [5] = assay: AntiDengue activity HCI DV4/A549 IC50 (uM); format: functional, organism-based
Dengue virus [6] = assay: AntiDengue activity HCI DV2/A549 IC50 (uM); format: functional, organism-based
A549 = assay: A549 CC50 (uM) Cytotoxicity; format: functional; details: Homo sapiens
Dengue virus [7] = assay: AntiDengue activity HCI DV1/A549 IC50 (uM); format: functional, organism-based
Dengue virus [8] = assay: AntiDengue activity HCI DV3/A549 IC50 (uM); format: functional, organism-based
Toxoplasma gondii [9] = assay: AntiToxoplasma gondii activity data 2-day killing assay: IC50 (uM), Experiment G; format: functional, organism-based
Toxoplasma gondii [10] = assay: AntiToxoplasma gondii activity data 2-day killing assay: inhibition at 10 uM (%) Experiment E; format: functional
[11] = HL60 CC50 (uM) Cytotoxicity; format: functional; details: HL-60
Toxoplasma gondii [12] = assay: AntiToxoplasma gondii activity data Inhibition of plaque forming efficiency (%) Experiment A; format: functional; parameters: concentration or dose not given beside the values
Toxoplasma gondii [13] = assay: AntiToxoplasma gondii activity data 2-day killing assay: inhibition at 10 uM (%) Experiment D; format: functional
Toxoplasma gondii [14] = assay: AntiToxoplasma gondii activity data Inhibition of plaque forming efficiency (%) Experiment B; format: functional; parameters: concentration or dose not given beside the values
Toxoplasma gondii [15] = assay: AntiToxoplasma gondii activity data 2-day killing assay: inhibition at 10 uM (%) Experiment C; format: functional; details: 48 h
Toxoplasma gondii [16] = assay: AntiToxoplasma gondii activity data 2-day killing assay: IC50 (uM), Experiment F; format: functional, organism-based
Onchocerca ochengi [17] = assay: AntiOnchocerca activity O. ochengi adult males: final mean inhibition motility at 10 uM on Day 5 (%); format: functional
HepG2 [18] = assay: Cytotoxicity data HepG2 CC20 (uM); format: functional
Onchocerca gutturosa [19] = assay: AntiOnchocerca activity O. gutturosa adult males: MTT reduction at 12.5 uM (%); format: functional; parameters: scale not given: the % may be the effect or the level left
Brugia pahangi [20] = assay: AntiBrugia pahangi activity Average inhibition motility at 10 uM (%); format: functional
Onchocerca volvulus [21] = assay: AntiOnchocerca activity O. volvulus L3 Molting assay: inhibition at 10 uM (%); format: functional
Onchocerca lienalis [22] = assay: AntiOnchocerca activity O. lienalis microfilariae Motility reduction (%); format: functional; parameters: concentration or dose not given beside the values
Onchocerca gutturosa [23] = assay: AntiOnchocerca activity O. gutturosa adult males: Motility reduction at 12.5 uM (%); format: functional; parameters: scale not given: the % may be the effect or the level left
Onchocerca ochengi [24] = assay: AntiOnchocerca activity O. ochengi adult females: final mean inhibition motility at 10 uM on Day 7 (%); format: functional
Onchocerca volvulus [25] = assay: AntiOnchocerca activity O. volvulus L3 Molting assay: IC50 (uM); format: functional, organism-based
Onchocerca lienalis [26] = assay: AntiOnchocerca activity O. lienalis microfilariae EC50 (uM); format: functional, organism-based
Onchocerca gutturosa [27] = assay: AntiOnchocerca activity O. gutturosa adult males: EC50 (uM); format: functional, organism-based
Brugia pahangi [28] = assay: AntiBrugia pahangi activity Average day 3 IC50 (uM); format: functional, organism-based; details: 72 h
Brugia malayi = assay: AntiBrugia malayi activity Effect on motility; format: functional, organism-based

CC(C)(C)OC(=O)N1CCN(c2nccc(-c3ccc(-c4ccc(Cl)cc4)s3)n2)CC1
IC50 [1]: 10 µM | CC50 (HepG2 [2]): > 50 µM | IC50 (Dengue virus [3]): > 50 µM | CC50 [4]: > 50 µM | IC50 (Dengue virus [5]): 3 µM | IC50 (Dengue virus [6]): 7 µM | CC50 (A549): > 50 µM | IC50 (Dengue virus [7]): 7 µM | IC50 (Dengue virus [8]): 2 µM

CC(Oc1cccc(Cl)c1)C(=O)Nc1ccc2oc(-c3ccncc3)nc2c1 (centres undefined)
IC50 (Toxoplasma gondii [9]): no inhibition | Inhibition (Toxoplasma gondii [10]): 81.6% | CC50 [11]: > 25 µM | Inhibition (Toxoplasma gondii [12]): 100% | Inhibition (Toxoplasma gondii [13]): 85.4% | Inhibition (Toxoplasma gondii [14]): 100% | inhibition at 10 µM (Toxoplasma gondii [15]): 0% | IC50 (Toxoplasma gondii [16]): no inhibition

COC(=O)c1ccc(F)cc1NS(=O)(=O)c1cccc(-c2cnn(Cc3ccccc3)c2)c1
IC50 [1]: 10 µM | CC50 (HepG2 [2]): 10 µM | IC50 (Dengue virus [3]): 10 µM | CC50 [4]: 20 µM | IC50 (Dengue virus [5]): > 50 µM | IC50 (Dengue virus [6]): 6 µM | CC50 (A549): > 50 µM | IC50 (Dengue virus [7]): 5 µM | IC50 (Dengue virus [8]): > 50 µM

COc1ccc(N(CCc2cccc(C)n2)C(=O)C2CCCCC2)cc1
Inhibition (Onchocerca ochengi [17]): 7% | CC50 [11]: > 50 µM | CC20 (HepG2 [18]): >80 µM | Activity (Onchocerca gutturosa [19]): 35.7% | Inhibition (Brugia pahangi [20]): 11% | Inhibition (Onchocerca volvulus [21]): 100% | Activity (Onchocerca lienalis [22]): 13% | Activity (Onchocerca gutturosa [23]): 42.9% | Inhibition (Onchocerca ochengi [24]): 4% | IC50 (Onchocerca volvulus [25]): 1.34 µM

Cc1[nH]c2cc(F)cc(F)c2c(=O)c1-c1ccc(Oc2ccc(OC(F)(F)F)cc2)cc1
EC50 (Onchocerca lienalis [26]): 1.37 µM | CC20 (HepG2 [18]): >80 µM | Activity (Onchocerca gutturosa [19]): 56.9% | EC50 (Onchocerca gutturosa [27]): 2.91 µM | Activity (Onchocerca lienalis [22]): 100% | Activity (Onchocerca gutturosa [23]): 58.9%

O=C(Nc1nnc(S)s1)c1cc(Br)ccc1Cl
Inhibition (Onchocerca ochengi [17]): 0% | CC50 [11]: > 50 µM | CC20 (HepG2 [18]): >80 µM | Activity (Onchocerca gutturosa [19]): 0% | Inhibition (Brugia pahangi [20]): 69% | Inhibition (Onchocerca volvulus [21]): 36% | Activity (Onchocerca lienalis [22]): 27% | Activity (Onchocerca gutturosa [23]): 29% | Inhibition (Onchocerca ochengi [24]): 4% | IC50 (Brugia pahangi [28]): 9.4 µM

CC(=O)N(CCN(C(=O)c1ccc(F)cc1)c1ccccc1)c1ccccc1
Inhibition (Onchocerca ochengi [17]): 0% | CC50 [11]: > 50 µM | CC20 (HepG2 [18]): 39 µM | Activity (Onchocerca gutturosa [19]): 0% | Inhibition (Brugia pahangi [20]): 4% | Inhibition (Onchocerca volvulus [21]): 100% | Activity (Onchocerca lienalis [22]): 13.3% | Activity (Onchocerca gutturosa [23]): 42.9% | Inhibition (Onchocerca ochengi [24]): 4% | IC50 (Onchocerca volvulus [25]): 3.13 µM

CS(=O)(=O)N1CCC(CCn2nc(Cc3cccc4ccccc34)c3c(N)ncnc32)CC1
IC50 (Toxoplasma gondii [9]): no inhibition | Inhibition (Toxoplasma gondii [10]): 20.6% | CC50 [11]: > 50 µM | Inhibition (Toxoplasma gondii [12]): 100% | Inhibition (Toxoplasma gondii [13]): 63.9% | Inhibition (Toxoplasma gondii [14]): 100% | inhibition at 10 µM (Toxoplasma gondii [15]): 0% | IC50 (Toxoplasma gondii [16]): no inhibition

CC(=O)N1CCN(c2ccc(Oc3ccc(Cl)cc3O)cc2)CC1
IC50 (Toxoplasma gondii [9]): no inhibition | Inhibition (Toxoplasma gondii [10]): 64.6% | CC50 [11]: > 50 µM | Inhibition (Toxoplasma gondii [12]): ~90% | Inhibition (Toxoplasma gondii [13]): 22.4% | Inhibition (Toxoplasma gondii [14]): ~90% | inhibition at 10 µM (Toxoplasma gondii [15]): 71% | IC50 (Toxoplasma gondii [16]): no inhibition

OC[C@H]1O[C@@H](n2c3ccc(Cl)cc3c3c(-c4cc5ccccc5o4)ncnc32)C(O)[C@H]1O (some centres undefined)
IC50 [1]: > 50 µM | CC50 (HepG2 [2]): 10 µM | IC50 (Dengue virus [3]): > 50 µM | CC50 [4]: 1 µM | IC50 (Dengue virus [5]): 3 µM | IC50 (Dengue virus [6]): 7 µM | CC50 (A549): > 50 µM | IC50 (Dengue virus [7]): 5 µM | IC50 (Dengue virus [8]): 3 µM

CCCCc1ccc(NC(=O)Nc2ccc(O[C@H]3CCCC[C@@H]3N(C)c3ccccc3)c(F)c2)cc1
Inhibition (Onchocerca ochengi [17]): 61% | CC50 [11]: > 6.2 µM | CC20 (HepG2 [18]): 5.77 µM | Activity (Onchocerca gutturosa [19]): 0% | Inhibition (Brugia pahangi [20]): 61% | Inhibition (Onchocerca volvulus [21]): 100% | Activity (Onchocerca lienalis [22]): 33.3% | Activity (Onchocerca gutturosa [23]): 14.3% | Inhibition (Onchocerca ochengi [24]): 57% | IC50 (Brugia pahangi [28]): 8.4 µM | IC50 (Onchocerca volvulus [25]): 1.09 µM

CC(C)(C)C(=O)N(CCCCCCN1C[C@H](O)[C@@H](O)[C@H](O)[C@H]1CO)C1CCCCCC1
IC50 [1]: > 50 µM | CC50 (HepG2 [2]): > 50 µM | IC50 (Dengue virus [3]): 2 µM | CC50 [4]: > 50 µM | IC50 (Dengue virus [5]): 0.2 µM | IC50 (Dengue virus [6]): 0.6 µM | CC50 (A549): > 50 µM | IC50 (Dengue virus [7]): 0.07 µM | IC50 (Dengue virus [8]): 0.08 µM

CC1(C)OB(O)c2ccc(C3=NOC(c4cc(Cl)c(F)c(Cl)c4)(C(F)(F)F)C3)cc21 (centres undefined)
CC20 (HepG2 [18]): 15.4 µM | Inhibition (Brugia malayi): 50%
